Patent publication US20240309043A1, “THERAPEUTICALLY ACTIVE STEROIDAL DERIVATIVES” (Organon R&D Finland Ltd., priority 2017, published 2024)

How the values were obtained:
[1] = biological target: T1, recombinant human 17β-HSD1 (Homo sapiens, UniProt P14061); experiment: Inhibition of recombinant human 17β-HSD1; format: biochemical; settings: inhibitor 100 nM; 30 nM estrone, 1 mM NADPH, 30 min RT
T1 construct: made in house; host or cells: Sd9 (Sf9) insect cells, baculovirus (Bac to Bac Expression System)
T1 sequence (P14061 1-328): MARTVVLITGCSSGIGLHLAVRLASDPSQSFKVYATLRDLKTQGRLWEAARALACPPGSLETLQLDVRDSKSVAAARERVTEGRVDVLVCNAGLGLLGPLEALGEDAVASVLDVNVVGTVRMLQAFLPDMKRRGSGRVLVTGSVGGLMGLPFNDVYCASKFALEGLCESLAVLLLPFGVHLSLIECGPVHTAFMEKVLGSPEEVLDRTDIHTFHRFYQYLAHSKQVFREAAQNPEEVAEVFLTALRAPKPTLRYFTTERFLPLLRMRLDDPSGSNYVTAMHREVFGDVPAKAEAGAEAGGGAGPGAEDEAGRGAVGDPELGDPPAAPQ
How it was run: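 Microsomes from Sf9 cells expressing human 17β-HSD1 (1 μg/ml) were incubated for 30 min at RT in 20 mM KH2PO4 pH 7.4 with 30 nM ³H-estrone, 1 mM NADPH and inhibitor at 1 μM or 0.1 μM (1% DMSO). Estrone-to-estradiol conversion was measured by radio-HPLC after TCA stop, and % inhibition was taken as 100 − % conversion.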

[2] = biological target: T2, recombinant human 17β-HSD2 (Homo sapiens, UniProt P37059); experiment: Inhibition of recombinant human 17β-HSD2; format: biochemical; settings: inhibitor 1 μM; 50 nM estradiol, 1 mM NADH, 30 min RT
T2 construct: made in house; host or cells: Sd9 (Sf9) insect cells, baculovirus (Bac to Bac Expression System)
T2 sequence (P37059 1-387): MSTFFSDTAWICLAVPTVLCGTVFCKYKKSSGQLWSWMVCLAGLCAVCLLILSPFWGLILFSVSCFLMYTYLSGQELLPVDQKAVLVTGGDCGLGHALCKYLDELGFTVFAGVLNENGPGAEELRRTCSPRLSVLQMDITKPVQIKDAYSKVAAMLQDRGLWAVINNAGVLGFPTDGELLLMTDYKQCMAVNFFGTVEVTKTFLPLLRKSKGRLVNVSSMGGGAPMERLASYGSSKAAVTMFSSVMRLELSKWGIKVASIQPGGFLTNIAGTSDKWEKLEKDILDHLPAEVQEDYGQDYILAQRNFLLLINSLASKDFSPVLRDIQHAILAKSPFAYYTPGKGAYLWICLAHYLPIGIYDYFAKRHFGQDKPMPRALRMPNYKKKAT
How it was run: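 Sf9 baculovirus-expressed enzyme membrane extract (4 μg/ml) incubated 30 min at RT in 20 mM KH2PO4 pH 8.5 with 50 nM estradiol (³H-tracer) and 1 mM NADH, inhibitor at 1 μM or 0.1 μM, 1% DMSO. TCA-stopped; estradiol-to-estrone conversion by radio-HPLC, % inhibition = 100 − % conversion.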

[3] = test system: HSD1 enzyme that is expressed in rabbit placenta tissue; experiment: Inhibition of E1 to E2 conversion in rabbit placenta tissue homogenate; format: biochemical; settings: inhibitor 100 nM, 30 nM estrone, 30 min
human hepatocytes = experiment: Metabolic stability assay, human hepatocyte incubations; format: in vitro ADME; settings: 37° C., 0-60 min, half life
Procedure: The in vitro metabolic stability of the compounds of the invention was determined for exemplified compounds using human hepatocyte incubations. Study compounds were incubated 0, 10, 20, 40 and 60 min at 37° C. Samples were collected at all time points and compounds were detected by LC-MS/MS analysis. The percent compound remaining is calculated by comparing the peak area of the parent compound at each time point to time zero. In vitro metabolic stability was determined as half life (T½), which was determined by regression analysis of the percent parent disappearance vs. time curve. The results are summarized in Table2.

CC(C)c1ccc(NC(=O)CC[C@@H]2C/C(=N\O)[C@@]3(C)CCC4c5ccccc5CCC4C23)nc1 (stereo partly drawn) [Compound 96, 3-((13S,15R,E)-17-(hydroxyimino)-13-methyl-7,8,9,11,12,13,14,15,16,17-decahydro-6H-cyclopenta[a]phenanthren-15-yl)-N-(5-isopropylpyridin-2-yl)propanamide]
inhibition at 0.1 µM [1]: 84%
inhibition at 1 µM [2]: -4%
Rabbit placenta inhibition % @100 nM [3]: 51%
Human hepatocytes MetStab T1_2 min (human hepatocytes): 46 min

C[C@]12CCC3c4ccccc4CCC3C1[C@H](CCC(=O)Nc1ccc(F)cn1)C/C2=N\O (stereo partly drawn) [Compound 98, N-(5-fluoropyridin-2-yl)-3-((13S,15R,E)-17-(hydroxyimino)-13-methyl-7,8,9,11,12,13,14,15,16,17-decahydro-6H-cyclopenta[a]phenanthren-15-yl)propanamide]
inhibition at 0.1 µM [1]: 60%
inhibition at 1 µM [2]: 0%
Rabbit placenta inhibition % @100 nM [3]: 4%
Human hepatocytes MetStab T1_2 min (human hepatocytes): 28 min

COc1ccnc(NC(=O)CC[C@@H]2C/C(=N\O)[C@@]3(C)CCC4c5ccccc5CCC4C23)c1 (stereo partly drawn) [Compound 106, 3-((13S,15R,E)-17-(hydroxyimino)-13-methyl-7,8,9,11,12,13,14,15,16,17-decahydro-6H-cyclopenta[a]phenanthren-15-yl)-N-(4-methoxypyridin-2-yl)propanamide]
inhibition at 0.1 µM [1]: 76%
inhibition at 1 µM [2]: 2%
Rabbit placenta inhibition % @100 nM [3]: 5%
Human hepatocytes MetStab T1_2 min (human hepatocytes): 31 min

Cc1cnc(NC(=O)CC[C@@H]2C/C(=N\O)[C@@]3(C)CCC4c5ccccc5CCC4C23)o1 (stereo partly drawn) [Compound 108, 3-((13S,15R,E)-17-(hydroxyimino)-13-methyl-7,8,9,11,12,13,14,15,16,17-decahydro-6H-cyclopenta[a]phenanthren-15-yl)-N-(5-methyloxazol-2-yl)propanamide]
inhibition at 0.1 µM [1]: 54%
inhibition at 1 µM [2]: 5%
Rabbit placenta inhibition % @100 nM [3]: 20%
Human hepatocytes MetStab T1_2 min (human hepatocytes): 21 min

Cc1cc(NC(=O)CC[C@@H]2C/C(=N\O)[C@@]3(C)CCC4c5ccccc5CCC4C23)no1 (stereo partly shown) [Compound 110]
inhibition at 0.1 µM [1]: 33%
inhibition at 1 µM [2]: -4%
Rabbit placenta inhibition % @100 nM [3]: 35%
Human hepatocytes MetStab T1_2 min (human hepatocytes): 26 min

CC(C)c1ccc(NC(=O)CC[C@@H]2C/C(=N\O)[C@@]3(C)CCC4c5cccc(F)c5CCC4C23)nc1 (stereo partly drawn) [Compound 112, 3-((13S,15R,E)-4-fluoro-17-(hydroxyimino)-13-methyl-7,8,9,11,12,13,14,15,16,17-decahydro-6H-cyclopenta[a]phenanthren-15-yl)-N-(5-isopropylpyridin-2-yl)propanamide]
inhibition at 0.1 µM [1]: 96%
inhibition at 1 µM [2]: 7%
Rabbit placenta inhibition % @100 nM [3]: 67%
Human hepatocytes MetStab T1_2 min (human hepatocytes): 29 min

C[C@]12CCC3c4cccc(F)c4CCC3C1[C@H](CCC(=O)Nc1ccc(N3CCOCC3)cn1)C/C2=N\O (stereo partly drawn) [Compound 114, 3-((13S,15R,E)-4-fluoro-17-(hydroxyimino)-13-methyl-7,8,9,11,12,13,14,15,16,17-decahydro-6H-cyclopenta[a]phenanthren-15-yl)-N-(5-morpholinopyridin-2-yl)propanamide]
inhibition at 0.1 µM [1]: 100%
inhibition at 1 µM [2]: 7%
Rabbit placenta inhibition % @100 nM [3]: 75%
Human hepatocytes MetStab T1_2 min (human hepatocytes): 40 min
